In article PMC6394493 (Cancer Chemotherapy and Pharmacology, 2018):

Assay: Safety assessment: adverse events
Assay type: in vivo, Japanese patients
Details: for Blood alkaline phosphatase increased, All grades / Blood alkaline phosphatase increased, Grade ¾ / Cancer pain, All grades / Cancer pain, Grade ¾ / Decreased appetite, All grades / Decreased appetite, Grade ¾ / Diarrhea, All grades / Diarrhea, Grade ¾ / Dysgeusia, All grades / Dysgeusia, Grade ¾ / Fatigue, All grades / Fatigue, Grade ¾ / Leukopenia, All grades / Leukopenia, Grade ¾ / Lymphopenia, All grades / Lymphopenia, Grade ¾ / Nausea, All grades / Nausea, Grade ¾ / Neutropenia, All grades / Neutropenia, Grade ¾ / Pyrexia, All grades / Pyrexia, Grade ¾ / Rash, All grades / Rash, Grade ¾ / Stomatitis, All grades / Stomatitis, Grade ¾ / Thrombocytopenia, All grades / Thrombocytopenia, Grade ¾ / Vomiting, All grades / Vomiting, Grade ¾ / AEs Total, All grades / AEs Total, Grade ¾ / Alanine aminotransferase increased, All grades / Alanine aminotransferase increased, Grade ¾: regardless of study drug relationship
Excerpt: Safety assessments consisted of monitoring and recording of all AEs, including laboratory abnormalities and vital signs. DLTs were defined as an AE or a laboratory abnormality assessed as related to the study drug and occurring within the first 28 days of treatment (Cycle 1), as defined in Supplemental Table S1.

Cn1c(=O)n(-c2ccc(C(C)(C)C#N)cc2)c2c3cc(-c4cnc5ccccc5c4)ccc3ncc21 [BEZ235]
0 n (%): Blood alkaline phosphatase increased, Grade ¾ (qd 1000 mg (n = 8)) | Cancer pain, Grade ¾ (qd 1000 mg (n = 8)) | Decreased appetite, Grade ¾ (qd 1000 mg (n = 8)) | Diarrhea, Grade ¾ (qd 1000 mg (n = 8)) | Dysgeusia, Grade ¾ (qd 1000 mg (n = 8)) | Nausea, Grade ¾ (qd 1000 mg (n = 8)) | Pyrexia, Grade ¾ (qd 1000 mg (n = 8)) | Stomatitis, Grade ¾ (qd 1000 mg (n = 8)) | Thrombocytopenia, Grade ¾ (qd 1000 mg (n = 8)) | Vomiting, Grade ¾ (qd 1000 mg (n = 8)) | Alanine aminotransferase increased, Grade ¾ (qd 1200 mg (n = 6)) | Cancer pain, Grade ¾ (qd 1200 mg (n = 6)) | Diarrhea, Grade ¾ (qd 1200 mg (n = 6)) | Dysgeusia, Grade ¾ (qd 1200 mg (n = 6)) | Leukopenia, Grade ¾ (qd 1200 mg (n = 6)) | Nausea, Grade ¾ (qd 1200 mg (n = 6)) | Neutropenia, Grade ¾ (qd 1200 mg (n = 6)) | Pyrexia, Grade ¾ (qd 1200 mg (n = 6)) | Thrombocytopenia, All grades (qd 1200 mg (n = 6)) | Thrombocytopenia, Grade ¾ (qd 1200 mg (n = 6)) | Vomiting, Grade ¾ (qd 1200 mg (n = 6)) | Cancer pain, All grades (qd 1400 mg (n = 7)) | Cancer pain, Grade ¾ (qd 1400 mg (n = 7)) | Decreased appetite, Grade ¾ (qd 1400 mg (n = 7)) | Dysgeusia, Grade ¾ (qd 1400 mg (n = 7)) | Fatigue, Grade ¾ (qd 1400 mg (n = 7)) | Nausea, Grade ¾ (qd 1400 mg (n = 7)) | Pyrexia, All grades (qd 1400 mg (n = 7)) | Pyrexia, Grade ¾ (qd 1400 mg (n = 7)) | Rash, Grade ¾ (qd 1400 mg (n = 7)) | Stomatitis, Grade ¾ (qd 1400 mg (n = 7)) | Vomiting, Grade ¾ (qd 1400 mg (n = 7)) | Dysgeusia, Grade ¾ (qd All patients (N = 27)) | Nausea, Grade ¾ (qd All patients (N = 27)) | Pyrexia, Grade ¾ (qd All patients (N = 27)) | Vomiting, Grade ¾ (qd All patients (N = 27))
25.9%: study drug discontinuation due to AEs (qd group, seven patients)
3 (37.5) n (%): Stomatitis, All grades (qd 1000 mg (n = 8))
1 (3.7) n (%): Alanine aminotransferase increased, Grade ¾ (qd All patients (N = 27)) | Cancer pain, Grade ¾ (qd All patients (N = 27)) | Decreased appetite, Grade ¾ (qd All patients (N = 27)) | Diarrhea, Grade ¾ (qd All patients (N = 27)) | Stomatitis, Grade ¾ (qd All patients (N = 27))
66.7%: patients with Grade 3 or 4 AEs (qd dosing, 18 patients)
6 (85.7) n (%): Decreased appetite, All grades (qd 1400 mg (n = 7)) | Nausea, All grades (qd 1400 mg (n = 7))
3 (11.1) n (%): Fatigue, Grade ¾ (qd All patients (N = 27)) | Thrombocytopenia, Grade ¾ (qd All patients (N = 27))
11.1%: grade 3 or 4 fatigue suspected to be study drug-related (qd group, three patients) | grade 3 or 4 neutropenia suspected to be study drug-related (qd group, three patients)
5 (62.5) n (%): Rash, All grades (qd 1000 mg (n = 8))
6 (100.0) n (%): AEs Total, All grades (qd 1200 mg (n = 6)) | AEs Total, Grade ¾ (qd 1200 mg (n = 6)) | Decreased appetite, All grades (qd 1200 mg (n = 6)) | Diarrhea, All grades (qd 1200 mg (n = 6)) | Stomatitis, All grades (qd 1200 mg (n = 6))
22 (81.5) n (%): Nausea, All grades (qd All patients (N = 27))
27 (100.0) n (%): AEs Total, All grades (qd All patients (N = 27))
5 (83.3) n (%): Nausea, All grades (qd 1200 mg (n = 6)) | Vomiting, All grades (qd 1200 mg (n = 6))
7 (25.9) n (%): Cancer pain, All grades (qd All patients (N = 27)) | Lymphopenia, Grade ¾ (qd All patients (N = 27))
4 (66.7) n (%): Fatigue, All grades (qd 1200 mg (n = 6))
2 (33.3) n (%): Fatigue, Grade ¾ (qd 1200 mg (n = 6)) | Neutropenia, All grades (qd 1200 mg (n = 6)) | Pyrexia, All grades (qd 1200 mg (n = 6))
5 (71.4) n (%): AEs Total, Grade ¾ (qd 1400 mg (n = 7)) | Stomatitis, All grades (qd 1400 mg (n = 7)) | Vomiting, All grades (qd 1400 mg (n = 7))
1 (12.5) n (%): Fatigue, Grade ¾ (qd 1000 mg (n = 8)) | Leukopenia, Grade ¾ (qd 1000 mg (n = 8)) | Neutropenia, All grades (qd 1000 mg (n = 8)) | Neutropenia, Grade ¾ (qd 1000 mg (n = 8)) | Rash, Grade ¾ (qd 1000 mg (n = 8))
2 (7.4) n (%): Blood alkaline phosphatase increased, Grade ¾ (qd All patients (N = 27)) | Leukopenia, Grade ¾ (qd All patients (N = 27)) | Rash, Grade ¾ (qd All patients (N = 27))
7.4%: grade 3 or 4 rash suspected to be study drug-related (qd group, two patients) | grade 3 or 4 thrombocytopenia suspected to be study drug-related (qd group, two patients)
18 (66.7) n (%): AEs Total, Grade ¾ (qd All patients (N = 27)) | Stomatitis, All grades (qd All patients (N = 27))
2 (28.6) n (%): Blood alkaline phosphatase increased, All grades (qd 1400 mg (n = 7)) | Dysgeusia, All grades (qd 1400 mg (n = 7)) | Leukopenia, All grades (qd 1400 mg (n = 7))
7 (100.0) n (%): AEs Total, All grades (qd 1400 mg (n = 7)) | Diarrhea, All grades (qd 1400 mg (n = 7))
3 (50.0) n (%): Dysgeusia, All grades (qd 1200 mg (n = 6))
4 (57.1) n (%): Fatigue, All grades (qd 1400 mg (n = 7)) | Lymphopenia, All grades (qd 1400 mg (n = 7)) | Neutropenia, All grades (qd 1400 mg (n = 7)) | Rash, All grades (qd 1400 mg (n = 7))
4 (14.8) n (%): Neutropenia, Grade ¾ (qd All patients (N = 27))
10 (37.0) n (%): Lymphopenia, All grades (qd All patients (N = 27))
17 (63.0) n (%): Fatigue, All grades (qd All patients (N = 27)) | Vomiting, All grades (qd All patients (N = 27))
8 (29.6) n (%): Dysgeusia, All grades (qd All patients (N = 27)) | Neutropenia, All grades (qd All patients (N = 27)) | Thrombocytopenia, All grades (qd All patients (N = 27))
7 (87.5) n (%): Decreased appetite, All grades (qd 1000 mg (n = 8)) | Diarrhea, All grades (qd 1000 mg (n = 8)) | Nausea, All grades (qd 1000 mg (n = 8))
24 (88.9) n (%): Decreased appetite, All grades (qd All patients (N = 27))
1 (14.3) n (%): Alanine aminotransferase increased, Grade ¾ (qd 1400 mg (n = 7)) | Blood alkaline phosphatase increased, Grade ¾ (qd 1400 mg (n = 7)) | Diarrhea, Grade ¾ (qd 1400 mg (n = 7)) | Leukopenia, Grade ¾ (qd 1400 mg (n = 7)) | Lymphopenia, Grade ¾ (qd 1400 mg (n = 7))
6 (75.0) n (%): Fatigue, All grades (qd 1000 mg (n = 8))
14.8%: grade 3 or 4 lymphopenia suspected to be study drug-related (qd group, four patients)
4 (50.0) n (%): Thrombocytopenia, All grades (qd 1000 mg (n = 8)) | Vomiting, All grades (qd 1000 mg (n = 8))
6 (22.2) n (%): Alanine aminotransferase increased, All grades (qd All patients (N = 27)) | Blood alkaline phosphatase increased, All grades (qd All patients (N = 27)) | Leukopenia, All grades (qd All patients (N = 27)) | Pyrexia, All grades (qd All patients (N = 27))
1 (16.7) n (%): Alanine aminotransferase increased, All grades (qd 1200 mg (n = 6)) | Blood alkaline phosphatase increased, All grades (qd 1200 mg (n = 6)) | Blood alkaline phosphatase increased, Grade ¾ (qd 1200 mg (n = 6)) | Cancer pain, All grades (qd 1200 mg (n = 6)) | Decreased appetite, Grade ¾ (qd 1200 mg (n = 6)) | Leukopenia, All grades (qd 1200 mg (n = 6)) | Lymphopenia, All grades (qd 1200 mg (n = 6)) | Lymphopenia, Grade ¾ (qd 1200 mg (n = 6)) | Rash, All grades (qd 1200 mg (n = 6)) | Rash, Grade ¾ (qd 1200 mg (n = 6)) | Stomatitis, Grade ¾ (qd 1200 mg (n = 6))
2 (25.0) n (%): Blood alkaline phosphatase increased, All grades (qd 1000 mg (n = 8)) | Cancer pain, All grades (qd 1000 mg (n = 8)) | Dysgeusia, All grades (qd 1000 mg (n = 8)) | Leukopenia, All grades (qd 1000 mg (n = 8)) | Lymphopenia, All grades (qd 1000 mg (n = 8)) | Lymphopenia, Grade ¾ (qd 1000 mg (n = 8)) | Pyrexia, All grades (qd 1000 mg (n = 8))
two: patients with study drug-related serious adverse events (SAEs) (qd dosing group)
3 (42.9) n (%): Alanine aminotransferase increased, All grades (qd 1400 mg (n = 7)) | Neutropenia, Grade ¾ (qd 1400 mg (n = 7)) | Thrombocytopenia, All grades (qd 1400 mg (n = 7))
25 (92.6) n (%): Diarrhea, All grades (qd All patients (N = 27))
11 (40.7) n (%): Rash, All grades (qd All patients (N = 27))
